The text below walks through data of ChEMBL document CHEMBL5226284, “Small Molecule Inhibitors Targeting Biosynthesis of Ceramide, the Central Hub of the Sphingolipid Network” (J Med Chem, 2021).

Test [1] is described as follows: Inhibition of rat brain aSMase using HMU-PC as substrate incubated for 3 hrs by fluorescence based analysis. It is filed as tissue-based.
For test [2], the target named is T1, Sphingomyelin phosphodiesterase 2 (Rattus norvegicus, UniProt Q9ET64).
T1 sequence (Q9ET64 whole entry): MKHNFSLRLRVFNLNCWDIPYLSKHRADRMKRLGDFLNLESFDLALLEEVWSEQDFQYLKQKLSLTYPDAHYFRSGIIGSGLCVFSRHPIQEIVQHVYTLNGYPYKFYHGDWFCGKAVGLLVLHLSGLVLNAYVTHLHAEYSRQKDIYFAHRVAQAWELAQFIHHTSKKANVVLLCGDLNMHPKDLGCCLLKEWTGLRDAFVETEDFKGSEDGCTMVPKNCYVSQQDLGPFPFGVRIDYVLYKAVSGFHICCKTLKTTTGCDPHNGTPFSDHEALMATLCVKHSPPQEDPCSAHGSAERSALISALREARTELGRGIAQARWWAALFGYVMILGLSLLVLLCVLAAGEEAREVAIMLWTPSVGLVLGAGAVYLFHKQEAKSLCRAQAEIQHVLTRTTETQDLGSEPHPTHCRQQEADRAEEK
The test can be described thus: Inhibition of rat brain microsomes nSMase. Set-up: species or system Microsome.

Test [3] deals with T2, Sphingomyelinase C (Bacillus cereus, UniProt P11889).
T2 sequence (P11889 whole entry): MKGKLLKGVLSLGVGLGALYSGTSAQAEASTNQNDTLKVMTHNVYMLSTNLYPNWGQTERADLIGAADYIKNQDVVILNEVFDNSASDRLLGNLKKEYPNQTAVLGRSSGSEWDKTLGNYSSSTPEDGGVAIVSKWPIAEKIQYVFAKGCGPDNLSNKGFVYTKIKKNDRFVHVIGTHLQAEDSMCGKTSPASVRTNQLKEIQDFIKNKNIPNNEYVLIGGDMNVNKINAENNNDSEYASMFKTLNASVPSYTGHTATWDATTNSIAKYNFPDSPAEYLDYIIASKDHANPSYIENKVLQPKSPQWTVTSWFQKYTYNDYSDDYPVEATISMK
The test can be described thus: Inhibition of Bacillus cereus SMaseC.

Test [4] addresses T3, Ceramide synthase 1 (Homo sapiens) (UniProt P27544).
T3 sequence (whole entry): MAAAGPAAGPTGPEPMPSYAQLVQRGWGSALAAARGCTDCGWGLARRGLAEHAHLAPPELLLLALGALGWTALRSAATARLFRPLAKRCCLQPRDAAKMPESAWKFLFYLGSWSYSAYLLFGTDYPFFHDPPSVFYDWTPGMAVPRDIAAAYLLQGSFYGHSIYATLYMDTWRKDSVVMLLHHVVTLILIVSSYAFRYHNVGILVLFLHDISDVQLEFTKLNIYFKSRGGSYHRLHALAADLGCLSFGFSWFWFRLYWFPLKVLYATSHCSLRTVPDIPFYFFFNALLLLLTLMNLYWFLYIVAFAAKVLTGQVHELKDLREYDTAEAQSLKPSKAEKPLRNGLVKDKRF
As to the kind of experiment: Inhibition of CerS1 (unknown origin) at 10 uM relative to control.

The target of test [5] is T4, Sphingomyelin phosphodiesterase 2 (Rattus norvegicus) (UniProt Q9ET64).
T4 sequence (whole entry): T1 sequence (Q9ET64 whole entry)
The test can be described thus: Inhibition of rat brain microsomes nSMase at 100 uM relative to control. The following applies: Microsome.

Test [6] concerns the target T5, Sphingomyelin phosphodiesterase 2 (Mus musculus, UniProt O70572).
T5 sequence (O70572 whole entry): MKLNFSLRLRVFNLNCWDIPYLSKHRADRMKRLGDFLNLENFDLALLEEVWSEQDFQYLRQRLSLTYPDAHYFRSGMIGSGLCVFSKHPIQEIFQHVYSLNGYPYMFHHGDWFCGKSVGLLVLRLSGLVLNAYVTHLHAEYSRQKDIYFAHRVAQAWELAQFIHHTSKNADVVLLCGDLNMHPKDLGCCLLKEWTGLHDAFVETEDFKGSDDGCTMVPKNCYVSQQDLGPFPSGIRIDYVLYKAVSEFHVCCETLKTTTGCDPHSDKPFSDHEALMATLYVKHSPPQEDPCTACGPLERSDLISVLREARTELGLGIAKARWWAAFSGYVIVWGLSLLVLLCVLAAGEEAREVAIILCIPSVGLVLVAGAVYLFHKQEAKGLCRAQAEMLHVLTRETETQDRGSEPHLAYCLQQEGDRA
As to the kind of experiment: Inhibition of mouse nSMase.

Test [7] in a line: Inhibition of rat brain aSMase using HMU-PC as substrate incubated for 3 hrs by fluorescence plate reader assay. It is filed as tissue-based.
Test [8] in a line: Inhibition of CerS human HCT-116 cells microsomal fraction assessed as reduction in C16 dihydroceramide synthesis by LC-MS/MS analysis. It is filed as microsomes, Microsome.
Test [9] can be described thus: Inhibition of CerS human HCT-116 cells microsomal fraction assessed as reduction in C18 dihydroceramide synthesis by LC-MS/MS analysis. The class given is microsomes, Microsome.
Test [10] in a line: Inhibition of CerS human HCT-116 cells microsomal fraction assessed as reduction in C24 dihydroceramide synthesis by LC-MS/MS analysis. It is filed as microsomes, Microsome.
A short description of test [11]: Inhibition of CerS human HCT-116 cells microsomal fraction assessed as reduction in C24:1 dihydroceramide synthesis by LC-MS/MS analysis. It is filed as microsomes, Microsome.
In test [12] the target is T4, Sphingomyelin phosphodiesterase 2 (Rattus norvegicus). The test can be described thus: Inhibition of rat brain microsomes nSMase at 200 uM measured after 90 mins relative to control. The following applies: Microsome.
For test [13], the species on record is Bos taurus. The test can be described thus: Inhibition of bovine brain microsomes nSMase measured after 60 mins relative to control. The following applies: Microsome.
For test [14], the target named is T4, Sphingomyelin phosphodiesterase 2 (Rattus norvegicus). As to the kind of experiment: Inhibition of rat brain microsomes nSMase at 350 uM measured after 15 mins relative to control. The note with it: Microsome.
Test [15] addresses T6, Sphingolipid delta(4)-desaturase DES1 (Homo sapiens, UniProt O15121).
T6 sequence (O15121 whole entry): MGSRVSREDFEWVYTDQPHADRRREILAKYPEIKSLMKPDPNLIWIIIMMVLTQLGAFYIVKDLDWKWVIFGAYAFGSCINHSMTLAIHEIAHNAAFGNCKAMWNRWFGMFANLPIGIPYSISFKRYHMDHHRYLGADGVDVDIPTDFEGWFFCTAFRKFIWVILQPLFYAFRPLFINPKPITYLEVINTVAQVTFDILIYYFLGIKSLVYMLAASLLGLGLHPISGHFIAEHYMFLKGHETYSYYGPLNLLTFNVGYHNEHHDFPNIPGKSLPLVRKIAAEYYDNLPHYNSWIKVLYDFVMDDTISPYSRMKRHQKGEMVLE
The test can be described thus: Inhibition of DES1 in human HGC-27 cell lysates. It is filed as subcellular.

Test [16] deals with HEK293. As to the kind of experiment: Competitive inhibition of CerS in HEK293 cells at 10 uM relative to control. It is filed as cell-based. The note with it: Homo sapiens.
The target of test [17] is Ceramide synthase 5 (Homo sapiens) (UniProt Q8N5B7). The test can be described thus: Inhibition of CerS5 (unknown origin) at 10 uM relative to control.
Chain of Ceramide synthase 5 (Homo sapiens) (Q8N5B7 whole entry): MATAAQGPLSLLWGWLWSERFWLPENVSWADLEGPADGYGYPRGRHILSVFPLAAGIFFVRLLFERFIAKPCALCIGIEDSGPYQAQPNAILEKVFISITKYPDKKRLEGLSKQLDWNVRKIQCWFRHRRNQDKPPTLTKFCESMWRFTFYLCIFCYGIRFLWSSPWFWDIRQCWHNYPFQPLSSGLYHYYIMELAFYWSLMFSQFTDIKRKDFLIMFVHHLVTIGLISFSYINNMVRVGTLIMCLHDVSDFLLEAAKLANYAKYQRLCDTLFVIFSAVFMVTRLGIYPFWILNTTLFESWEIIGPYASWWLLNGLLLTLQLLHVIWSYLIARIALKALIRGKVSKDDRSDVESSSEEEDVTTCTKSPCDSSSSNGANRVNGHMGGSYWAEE
Test [18] has as its target Ceramide synthase 6 (Homo sapiens) (UniProt Q6ZMG9). The test can be described thus: Inhibition of CerS6 (unknown origin) at 10 uM relative to control.

Each structure is given as a SMILES string.

Chain of Ceramide synthase 6 (Homo sapiens) (Q6ZMG9 whole entry): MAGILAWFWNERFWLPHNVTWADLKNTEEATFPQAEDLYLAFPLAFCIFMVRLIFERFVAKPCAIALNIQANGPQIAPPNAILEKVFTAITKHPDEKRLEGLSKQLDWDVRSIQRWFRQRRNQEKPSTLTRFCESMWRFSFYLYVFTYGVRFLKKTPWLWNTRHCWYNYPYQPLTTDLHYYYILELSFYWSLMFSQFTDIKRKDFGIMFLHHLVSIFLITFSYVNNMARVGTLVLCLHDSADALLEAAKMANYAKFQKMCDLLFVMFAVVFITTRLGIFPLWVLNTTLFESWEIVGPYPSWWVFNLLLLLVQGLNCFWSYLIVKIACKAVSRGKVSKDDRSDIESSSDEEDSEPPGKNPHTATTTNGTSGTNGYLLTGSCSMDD

The IC50 is the concentration at which inhibition is half-maximal. In test [1], `CCCCCCOS(=O)(=O)O[C@@H]1[C@H](O)[C@H](OP(=O)(O)O)[C@@H](O)[C@H](OP(=O)(O)O)[C@H]1O` yielded an IC50 of 43 µM.
On to `CC(C)(O)/C=C/c1cc(O)ccc1O`, for which the IC50 in [2] is 17 µM.
In test [3], `CCCCCCC[C@@H](O)[C@H](CC(F)(F)P(=O)([O-])OCC[N+](C)(C)C)NC(=O)CCCCC` returned an IC50 of 57 µM.
Usually inhibition stands for the relative decrease from the control value, in per cent. A low value points to a weak effect. Consider `CCCCOc1ccc(CC[C@](C)(N)CO)cc1`, for which the inhibition in [4] was found to be 16%.
`COc1c(O)c(C)c(C/C=C(\C)CC/C=C(\C)CC/C=C(\C)CC/C=C(\C)CC/C=C(\C)CCC=C(C)C)c(O)c1OC`: in test [5], the inhibition was more than 90%.
As to `CCN(CC)c1ccc(C2NC(=S)NC(C)=C2C(=O)Nc2ccccc2OC)cc1` (centres undefined), half-maximal inhibition in [6] (IC50) required 0.9 µM.
Regarding `C[C@@](N)(CO)CCc1ccc(OCc2ccccc2)cc1`, in [4], the inhibition turned out to be 76%.
`CCCCCCC[C@@H](O)[C@H](CCCP(=O)([O-])OCC[N+](C)(C)C)NC(=O)CCCCC` gave a concentration for half-maximal inhibition (IC50) in test [3] of 78 µM.
`N=C(N)N/N=C/c1cc2ccccc2[nH]1` yielded an IC50 in test [2] of 5 µM.
In [1], `CCCCCCCCOS(=O)(=O)O[C@@H]1[C@H](O)[C@H](OP(=O)(O)O)[C@@H](O)[C@H](OP(=O)(O)O)[C@H]1O` gave a half-inhibitory concentration (IC50) of 4 µM.
For the compound `CCCCCCCCCC(N)(P(=O)(O)O)P(=O)(O)O`, the IC50 in test [7] was 0.02 µM.
For `CCCCCCCCc1ccc(CCC(CO)(CO)NCC)cc1`, the values for the IC50 in [8], in test [9] and in [10] were 25.7 µM, 50.7 µM and 60.6 µM, respectively.
For `S=c1[nH]nc(-c2cccs2)n1CC1CCCCC1`, the IC50 in [6] came out at 2.5 µM.
On to `CCCCCCCOc1ccc(CCC(CO)(CO)N(C)C)cc1`, for which the IC50 in [9] was 21.4 µM; in test [11], 28.7 µM.
Turning to `CCCCCCCCCC(=O)N[C@H](CO)C(=O)NC1=CC2(CO2)C(=O)C=C1` (some centres undefined), in test [12], the inhibition was determined as 80%.
For `C/C=C/C=C/C(=O)N[C@@H](CO)[C@H]1C=C(CCCCCC)C(=O)O1`, the inhibition in test [13] was determined as 90%; in [14], 50%.
In [1], `CCOS(=O)(=O)O[C@@H]1[C@H](O)[C@H](OP(=O)(O)O)[C@@H](O)[C@H](OP(=O)(O)O)[C@H]1O` yielded an IC50 of more than 100 µM.
`CCCCCCCCCCC/C=C/CC[C@@H](O)[C@H](CO)NC(=O)CCCCCCC` yielded an IC50 in [15] of 0.155 µM.
In the case of `CCCCCCCOc1ccc(CC[C@](C)(N)CO)cc1`, the inhibition in test [16] was 50%; in [4], more than 90%; in test [17], 50%; in test [18] it was 50%.
In the case of `CCCCCCC[C@@H](O)[C@H](CCP(=O)([O-])OCC[N+](C)(C)C)NC(=O)CCCCC`, the IC50 in test [3] came out at 120 µM.
Regarding `CCCCCCCCCC(O)(P(=O)(O)O)P(=O)(O)O`, in test [7], half-maximal inhibition (IC50) required 0.08 µM.
Turning to `CCCCCCCCCC(=O)N[C@H](C)C(=O)NC1=CC2(CO2)C(=O)C=C1` (some centres undefined), the inhibition in test [12] turned out to be 33%.
